The target of one experiment is T1, ASBT (Homo sapiens, UniProt Q12908).
T1 construct: stably transfected with the full open reading frames of human NTCP, ASBT, SOAT, OATP1B1, OATP1B3, OATP2B1, and murine Asbt (mAsbt); expressed in transfected cells; host or cells: HEK293 (Flp-In), stably transfected, tetracycline-induced
T1 sequence (Q12908 1-348): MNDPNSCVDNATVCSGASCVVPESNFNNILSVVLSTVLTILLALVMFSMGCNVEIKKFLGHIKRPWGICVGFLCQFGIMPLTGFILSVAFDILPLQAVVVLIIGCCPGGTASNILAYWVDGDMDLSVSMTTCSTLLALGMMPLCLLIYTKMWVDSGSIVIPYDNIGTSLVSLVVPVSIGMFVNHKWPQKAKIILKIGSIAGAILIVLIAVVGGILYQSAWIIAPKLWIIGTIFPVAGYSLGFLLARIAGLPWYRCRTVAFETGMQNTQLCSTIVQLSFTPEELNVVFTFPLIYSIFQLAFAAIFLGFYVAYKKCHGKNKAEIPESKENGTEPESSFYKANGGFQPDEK
The experiment can be described thus: Transport inhibition and recovery assay (inhibitor washout) in ASBT-HEK293 cells. In kind it is cell-based. The note with it: 3 μM inhibitor, 5 min preincubation, 10 min uptake of 1 μM [3H]TC.

A further experiment deals with T2, murine Asbt (mAsbt) (Mus musculus, UniProt P70172).
T2 construct: stably transfected with the full open reading frames of human NTCP, ASBT, SOAT, OATP1B1, OATP1B3, OATP2B1, and murine Asbt (mAsbt); expressed in transfected cells; host or cells: HEK293 (Flp-In), stably transfected, tetracycline-induced
T2 sequence (P70172 1-348): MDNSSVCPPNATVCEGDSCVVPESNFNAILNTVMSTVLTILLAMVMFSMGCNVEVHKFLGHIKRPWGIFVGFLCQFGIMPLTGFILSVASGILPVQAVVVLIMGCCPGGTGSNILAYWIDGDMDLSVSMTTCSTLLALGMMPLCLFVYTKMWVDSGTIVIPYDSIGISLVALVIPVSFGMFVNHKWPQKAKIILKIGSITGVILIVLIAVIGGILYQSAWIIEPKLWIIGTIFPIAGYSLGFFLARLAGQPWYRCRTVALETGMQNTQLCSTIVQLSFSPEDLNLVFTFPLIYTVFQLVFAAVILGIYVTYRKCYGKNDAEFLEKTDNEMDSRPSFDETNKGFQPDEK
Briefly: [3H]TC transport and inhibition assay in mAsbt-HEK293 cells. It counts as cell-based. The note with it: for Inhibition curve/AUC of mAsbt compared to ASBT: 1 μM [3H]TC, 10 min, AUC combined from two experiments. From the text:
Human embryonic kidney HEK293 cells, stably transfected with the full open reading frames of human NTCP, ASBT, SOAT, OATP1B1, OATP1B3, OATP2B1, and murine Asbt (mAsbt) were used as reported ([18], [20], [21], [22], [23]). The NTCP, ASBT, and mAsbt constructs were C-terminally tagged with the FLAG epitope, and the SOAT construct was C-terminally tagged with green fluorescent protein. Non-transfected Flp-In HEK293 cells (Thermo Fisher Scientific) served as the control. All cell lines were maintained at 37°C, 5% CO2 and 95% humidity in DMEM/F-12 medium (Thermo Fisher Scientific) supplemented with 10% fetal calf serum (Sigma-Aldrich), 4 mM L-glutamine (PAA) and penicillin/streptomycin (PAA). Expression of the respective carrier protein was induced by tetracycline treatment at 1 μg/ml (Carl Roth GmbH + Co. KG).
Cells were seeded onto poly-L-lysine-coated 96-well plates, induced with 1 μg/ml tetracycline, and grown to confluence over 72 h at 37°C. Then, cells were washed with tempered (37°C) phosphate-buffered saline (PBS, containing 137.0 mM NaCl, 2.7 mM KCl, 1.5 mM KH2PO4, and 7.3 mM Na2HPO4, at pH 7.4) and preincubated with 80 μl sodium transport buffer (STB, containing 142.9 mM NaCl, 4.7 mM KCl, 1.2 mM MgSO4, 1.2 mM KH2PO4, 1.8 mM CaCl2, and 20.0 mM HEPES, at pH 7.4) for 5 min at 37°C. For inhibition studies, the medium was replaced by 80 μl STB containing the respective inhibitor or solvent alone and cells were further incubated for 5 min at 37°C. Transport experiments were started by adding 20 μl of a 5-fold concentrated substrate solution (solved in STB). For transport experiments under sodium-free conditions the same buffer composition was used as for STB, but sodium chloride was substituted with equimolar concentrations of choline chloride as previously reported ([20], [24]). Transport experiments were stopped by washing twice with ice-cold PBS and the plates were kept cool on ice until adding the lysis buffer [1% sodium dodecyl sulfate (SDS) and 1 N NaOH]. Then, the cell-associated radioactivity of the respective tritium-labeled substrate or ligand was quantified by liquid scintillation counting using MicroScint-20 scintillation cocktail (Revvity) in a Packard Microplate Scintillation Counter TopCount NXT (Packard Instrument Company). For IC50 transport inhibition measurements, the mean uptake values measured in non-carrier-expressing HEK293 control cells were defined as 0% uptake control and were subtracted from all other values. Values from cells without inhibitor and solvent alone were set to 100%. Finally, all net transport data were expressed as uptake or binding as % of control. […] From the specific uptake rates, Michaelis Menten Km values were calculated by non-linear regression analysis.

On to `CCCC[C@]1(CC)CS(=O)(=O)c2cc(CNC(CC(=O)O)CC(=O)O)c(OC)cc2[C@@H](c2ccccc2)N1` [linerixibat], for which the “ASBT inhibition with inhibitor present during uptake (inhibitor + [3H]TC)” value at ASBT is “full ASBT inhibition”. For the same molecule, the “Inhibition curve/AUC of mAsbt compared to ASBT” value at murine Asbt (mAsbt) is on record as “lower AUC values were determined for mAsbt compared to ASBT but without reaching the level of significance”. Further, the “Transport inhibition at highest substrate concentration” value at murine Asbt (mAsbt) (500 μM [3H]TC) is recorded as “full transport inhibition”. Besides, the “IC50 values at increasing substrate concentrations (in words)” value against murine Asbt (mAsbt) ([3H]TC 0.3-500 μM) is given as “remained quite stable”.

As to `CCCCC1(CCCC)CN(c2ccccc2)c2cc(SC)c(OCC(=O)N[C@@H](C(=O)N[C@@H](CC)C(=O)O)c3ccc(O)cc3)cc2S(=O)(=O)N1` [odevixibat], the “Inhibition curve/AUC of mAsbt compared to ASBT” value at murine Asbt (mAsbt) is “much more potent inhibitor of the human ASBT protein compared to mAsbt”.
